Tests used:
Format in all cases: cell-based
[1] = tested on: anti-GluR3 antibody-evoked currents, mouse cortical neurons in culture; assay: Block of anti-GluR3 antibody-evoked whole cell currents; conditions: for blockage of anti-GluR3 antibody-evoked currents: CNQX 40 μM, MK-801 10 μM, peptides 0.5 mg/ml incubated with serum or IgG for 15 minutes
[2] = tested on: glutamate receptors, fetal mouse cortical neurons in culture; assay: Whole cell currents evoked in voltage-clamped neurons in culture; conditions: 100 μM NMDA with 1 μM glycine, -75 mV, 1 mM MgCl2
Experimental: To examine functional consequences of antibody binding to glutamate receptors, electrophysiological methods were used to record whole cell currents from mouse cortical neurons in culture. Neuronal cultures from fetal (E14-16) mouse cortical and hippocampal structures were prepared on poly-L-lysine-coated 35 mm "FALCON" dishes according to G. Skeen et al., 44 Molec. Pharmacol. 443 (1993), hereby incorporated by reference. Cultures were fed every other day using a growth medium consisting of DMEM, 10% horse serum, 30 mM glucose, and 0.5 mM glutamine. Arabinosylcytosine (ARA-C) was added for 1 day during the first week in culture to suppress growth of non-neuronal cells. Electrophysiological experiments were performed on 2-5 week old cultures at room temperature. External solution consisted of 145 mM NaCl, 1.5 mM KCl, 1 mM CaCl2, 1 mM MgCl2, 10 mM Na-HEPES, 10 mM glucose, 30 mM sucrose at pH 7.4, 320 mOsm. Internal solution consisted of 153 mM CsCl, 10 mM Cs-HEPES, 4 mM MgCl2, 5 mM EGTA at pH 7.35, 300 mOsm. Solutions were designed for measurement of predominantly sodium inward currents and to block NMDA receptor currents when neurons are voltage clamped at -75 mV. […]
Currently, the composition of native GluR's and GABAR's is unknown and the potential diversity of native receptors is immense. […] Five cells are recorded for each paradigm and antibody. […]

[3] = tested on: currents evoked by serum from a Rasmussen's encephalitis patient, fetal mouse cortical neurons; assay: Block of whole cell currents evoked by serum from a Rasmussen's encephalitis patient
Experimental: To examine functional consequences of antibody binding to glutamate receptors, electrophysiological methods were used to record whole cell currents from mouse cortical neurons in culture. Neuronal cultures from fetal (E14-16) mouse cortical and hippocampal structures were prepared on poly-L-lysine-coated 35 mm "FALCON" dishes according to G. Skeen et al., 44 Molec. Pharmacol. 443 (1993), hereby incorporated by reference. Cultures were fed every other day using a growth medium consisting of DMEM, 10% horse serum, 30 mM glucose, and 0.5 mM glutamine. Arabinosylcytosine (ARA-C) was added for 1 day during the first week in culture to suppress growth of non-neuronal cells. Electrophysiological experiments were performed on 2-5 week old cultures at room temperature. External solution consisted of 145 mM NaCl, 1.5 mM KCl, 1 mM CaCl2, 1 mM MgCl2, 10 mM Na-HEPES, 10 mM glucose, 30 mM sucrose at pH 7.4, 320 mOsm. Internal solution consisted of 153 mM CsCl, 10 mM Cs-HEPES, 4 mM MgCl2, 5 mM EGTA at pH 7.35, 300 mOsm. Solutions were designed for measurement of predominantly sodium inward currents and to block NMDA receptor currents when neurons are voltage clamped at -75 mV. […] To block other currents, 0.2-1 μM tetrodotoxin (TTX), 10 μM picrotoxin, 10 nM strychnine were added to the external solution. External solution was perfused continuously at about 2 ml/min. […]

## N#Cc1cc2c(cc1[N+](=O)[O-])=NC(=O)C(=O)N=2 [CNQX, 6-cyano-7-nitro-quinoxaline-2,3-dione, reference compound]
[1]; 40 μM, rabbit serum 1:8, 6 cells
  Antibody-evoked currents reduced to % of control: 4±20 % of control
[1]
  blockage of anti-GluR3 antibody-evoked currents: rapid, reversible, and voltage independent

## C[C@]12N[C@H](Cc3ccccc31)c1ccccc12 [MK-801, reference compound]
[1]
  blockage of anti-GluR3 antibody-evoked currents: had no effect

## CN[C@H](CC(=O)O)C(=O)O [NMDA, N-methyl-D-aspartate]
[2]
  current evoked by NMDA: No current was evoked

## GluR3A: synthetic peptide, amino acids 245-274 of GluR3 (SEQ ID NO:1) (NNENPMVQQFIQRWVRLDEREFPEAKNAP)
[1]
  blockage of anti-GluR3 antibody-evoked currents: did not block antibody-evoked currents
[3]
  blockage of currents evoked by serum from a Rasmussen's encephalitis patient: does not
